Experiments:
human TGR5 (h-TGR5) = molecular target: T1, human TGR5 (h-TGR5) (Homo sapiens, UniProt Q8TDU6); assay: TGR5/CRE-Luciferiase Assay (HEK 293 hTGR5/CRE-Luc cells); assay type: cell-based; settings: h-TGR5 CRE-Luc EC50, Table 1; read-out: CRE-Luc (EC50)
T1 construct: expressed in transfected cells
T1 sequence (Q8TDU6 1-330): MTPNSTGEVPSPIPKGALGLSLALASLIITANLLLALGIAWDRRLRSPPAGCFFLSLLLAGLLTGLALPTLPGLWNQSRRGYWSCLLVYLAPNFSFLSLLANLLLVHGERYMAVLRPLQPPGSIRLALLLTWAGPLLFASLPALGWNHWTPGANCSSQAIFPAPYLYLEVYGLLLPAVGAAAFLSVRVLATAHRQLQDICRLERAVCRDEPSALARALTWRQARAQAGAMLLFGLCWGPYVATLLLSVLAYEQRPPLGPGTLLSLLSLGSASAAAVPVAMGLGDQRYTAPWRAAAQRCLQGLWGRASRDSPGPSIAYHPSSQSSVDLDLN
Procedure, shortened: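 HEK293 cells stably carrying hTGR5 and a CRE-luciferase reporter were exposed to serially diluted compounds (diluted in DMEM with 5% DMSO) for 6 h. Cells were then lysed in luciferase buffer, luminescence was read, and EC50 values were derived from dose-response curves.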

h-TGR5 = molecular target: T2, h-TGR5 (Homo sapiens, UniProt Q8TDU6); assay: TGR5 cAMP Assay using Cisbio cAMP Dynamic2 htrf kit (hTGR5CRE-luc HEK 293 cells); assay type: cell-based; settings: h-TGR5 cAMP EC50, Table 1; read-out: cAMP (EC50)
T2 construct: expressed in transfected cells
T2 sequence (Q8TDU6 1-330): T1 sequence (Q8TDU6 1-330)
Procedure, shortened: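 […], 4000 hTGR5CRE-luc HEK 293 cells per well, with 0.5 mM IBMX and d2-cAMP, were incubated 30 min at room temperature with compounds in 8-point half-log series, in quadruplicate.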

EC50 (human TGR5 (h-TGR5))	EC50 (h-TGR5)	SMILES
0.1 to 1 µM	0.1 to 1 µM	CC(C)(c1ccc(F)c(F)c1)c1cnc(SCc2ccc(S(N)(=O)=O)cc2Cl)n1-c1ccc(F)cc1 [3-chloro-4-[({5-[1-(3,4-difluorophenyl)-1-methylethyl]-1-(4-fluorophenyl)-1H-imidazol-2-yl}thio)methyl]benzenesulfonamide]
< 0.1 µM	0.1 to 1 µM	CC(C)(c1ccc(Cl)c(Cl)c1)c1cnc(SCc2c(F)cccc2Cl)n1-c1ccc(F)c(F)c1 [2-{[(2-chloro-6-fluorophenyl)methyl]thio}-5-[1-(3,4-dichlorophenyl)-1-methylethyl]-1-(3,4-difluorophenyl)-1H-imidazole]
0.1 to 1 µM	0.1 to 1 µM	CC(C)(c1ccc(S(N)(=O)=O)c(Cl)c1)c1cnc(SCc2ccc(Cl)c(-c3nnn[nH]3)c2)n1-c1ccc(F)c(F)c1 [2-chloro-4-{1-[2-({[4-chloro-3-(1H-tetrazol-5-yl)phenyl]methyl}thio)-1-(3,4-difluorophenyl)-1H-imidazol-5-yl]-1-methylethyl}benzenesulfonamide]
< 0.1 µM	0.1 to 1 µM	CC(C)(c1ccc(Cl)c(Cl)c1)c1cnc(SCc2c(F)cc(C(=O)O)cc2F)n1-c1ccc(F)cc1 [4-[({5-[1-(3,4-dichlorophenyl)-1-methylethyl]-1-(4-fluorophenyl)-1H-imidazol-2-yl}thio)methyl]-3,5-difluorobenzoic acid]
0.1 to 1 µM	0.1 to 1 µM	COc1cc(-n2c(C(C)(C)c3ccc(Cl)c(Cl)c3)cnc2SCc2ccc(C#CCNC(=N)N)c(C(=O)O)c2)ccc1F [2-(3-{[amino(imino)methyl]amino}prop-1-yn-1-yl)-5-[({5-[1-(3,4-dichlorophenyl)-1-methylethyl]-1-[4-fluoro-3-(methyloxy)phenyl]-1H-imidazol-2-yl}thio)methyl]benzoic acid]

Further lines, the compound ahead of its results:

SMILES	EC50 (human TGR5 (h-TGR5))	EC50 (h-TGR5)
COc1cc(C(C)(C)c2cnc(SCc3c(F)cc(C(C)(C)O)cc3Cl)n2-c2ccc(F)cc2)ccc1Cl [2-[3-chloro-4-({[5-{1-[4-chloro-3-(methyloxy)phenyl]-1-methylethyl}-1-(4-fluorophenyl)-1H-imidazol-2-yl]thio}methyl)-5-fluorophenyl]propan-2-ol]	< 0.1 µM	< 0.1 µM
COc1ccc(C(C)(C)c2cnc(SCc3ccc(Cl)c(C(=O)O)c3)n2-c2ccc(F)cc2)cc1Cl [2-chloro-5-({[5-{1-[3-chloro-4-(methyloxy)phenyl]-1-methylethyl}-1-(4-fluorophenyl)-1H-imidazol-2-yl]thio}methyl)benzoic acid]	0.1 to 1 µM	0.1 to 1 µM
COc1cc(C(C)(C)c2cnc(SCc3ccc(F)cc3Cl)n2-c2ccc(F)cc2)ccc1Cl [2-{[(2-chloro-4-fluorophenyl)methyl]thio}-5-{1-[4-chloro-3-(methyloxy)phenyl]-1-methylethyl}-1-(4-fluorophenyl)-1H-imidazole]	< 0.1 µM	0.1 to 1 µM
COc1cc(C(C)(C)c2cnc(SCc3c(F)cc(C(=O)NCCCC(NC(=N)N)C(=O)O)cc3Cl)n2-c2ccc(F)cc2)ccc1Cl [N-2-[amino(imino)methyl]-N-5-{[3-chloro-4-({[5-{1-[4-chloro-3-(methyloxy)phenyl]-1-methylethyl}-1-(4-fluorophenyl)-1H-imidazol-2-yl]thio}methyl)-5-fluorophenyl]carbonyl}-L-ornithine]	< 0.1 µM	< 0.1 µM
CC(C)(c1ccc(Cl)c(Cl)c1)c1cnc(SCC2CCN(S(C)(=O)=O)CC2)n1-c1ccc(F)c(Cl)c1 [4-[({1-(3-chloro-4-fluorophenyl)-5-[1-(3,4-dichlorophenyl)-1-methylethyl]-1H-imidazol-2-yl}thio)methyl]-1-(methylsulfonyl)piperidine]	< 0.1 µM	0.1 to 1 µM
CC(C)(c1ccc(F)c(F)c1)c1cnc(SCc2ccc(S(=O)(=O)NC(=O)NN3CCCC3)cc2Cl)n1-c1ccc(F)c(F)c1 [3-chloro-4-[({1-(3,4-difluorophenyl)-5-[1-(3,4-difluorophenyl)-1-methylethyl]-1H-imidazol-2-yl}thio)methyl]-N-[(pyrrolidin-1-ylamino)carbonyl]benzenesulfonamide]	0.1 to 1 µM	1 to 10 µM
